Earlier results as cited in US20110105600A1, “SYNERGISTIC COMPOSITION OF (-)-HYDROXYCITRIC ACID WITH MONOTERPENE AND A METHOD TO ENHANCE SATIETY” (Glykon Technologies Group, LLC, priority 2009, published 2011).

Key:
[1] = single large oral dose or two divided oral doses; animals fed a high-sugar diet
[2] = end of eight weeks; 2,800 mg/HCA per day in capsules
[3] = 40 oz of Mediterranean-style lemonade containing 596 mg d-limonene
[4] = not given; remark: listed apart in the source
[5] = system: rat
[6] = humans; dosage related to total body surface area

O=C(O)CC(O)(C(=O)O)C(O)C(=O)O (single isomer, unassigned; (-)) [HCA, (−)-hydroxycitric acid]
reduction in food consumption [1]: ≥ 10% | decrease in food intake (900 mg HCA dissolved in 100 ml tomato juice, 2-week period): 15-30% | reduction in appetite (900 mg/day, two weeks): 15-30% | weight loss (2-week period): no significant weight loss | decrease in appetite [2]: approximately 15.6%

C=C(C)[C@H]1CC=C(C)CC1 [d-limonene]
time to maximal blood concentrations of perillyl alcohol [3]: one | duration of slight fatigue and eructation ([4]; oral dose of 100 mg/kg): four | duration of mild satiety ([4]; oral dose of 100 mg/kg (bolus of 7 grams for a 70 kg human)): 10 h

CC(C)=CCC/C(C)=C/CO [geraniol]
acute oral LD50 [5]: 3,600 mg/kg body weight

CC(C)=CCC/C(C)=C\CO [nerol]
acute oral LD50 [5]: 4,500 mg/kg body weight

C=C(C)[C@@H]1CC=C(CO)CC1 [perillyl alcohol]
maximum tolerated dose [6]: 8400 mg/m^2 per day
